Laboratory results published in patent EP0765662A1, “HIV GROWTH INHIBITORY COMPOSITION” (Kochi, Mutsuyuki, priority 1994, dated 1995).

System: HIVBRU
Experiment: HIV-p24 antigen released from HIV-infected A3.01 cells stimulated with TNF-α
Format: cell-based
Settings: AZT 2 µg/ml in place of SBA, HIV-infected A3.01 cells
From the text: In view of all these test results, it appears that the inhibitory activity of SBA against the replication of HIV-1 is not attributable to that SBA directly acts on HIV so as to make lose the infectivity (infectious power) of HIV. (c) Test of examining the inhibitory activity of SBA against such replication of the viral particles of HIV which is induced when a tumor necrosis factor (TNF-α) is introduced into the HIV-infected A3.01 cells AIDS virus, HIVBRU (its reverse transcriptase activity, 0.03 cpm/cell) and 6 x 10^6 cells of the A3.01 cell (HAT-susceptible CEM cell strain) were mixed and reacted together in a culture medium at 37°C for 1 hour, and thereafter the mixed cells were washed with PBS to remove the excess of the particles of HIV virus therefrom. The A3.01 cells (5 x 10^5 cells) which had been so infected with HIV were then cultivated in various culture media containing TNF-α and SBA at different concentrations of them. The amount of the HIV-p24 antigen (an HIV-structural protein of HIV) which was released in the culture supernatant from the cultivated cells under test was periodically measured during the period of between 0 day to 5th day of the cultivation. The culture medium used for the above-mentioned cultivation of the A3.01 cells was an RPM1-1640 medium comprising 10% of heat-treated embryonic bovine serum, and minor amounts of penicillin, streptomycin, glutamine and mercaptoethanol. The amount of the HIV-p24 antigen produced was measured with lapse of time, and the relationship of the amount of the HIV-p24 antigen to the concentration of SBA is summarily tabulated in Table 4 below.
In the tests above, the replication of the viral particles of HIV was examined in terms of the amount of the p24 antigen protein produced and appearing in the culture supernatant from the cultivated cells. Thus, the amount of the p24 antigen produced was measured periodically over 6 days after the A3.01 cells were infested with HIV. It was then observed that in the absence of SBA, the replication of the viral particles of HIV was induced in the A3.01 cells by stimulation with 10 units/ml of TNF-α added. […] Thus, the effective amount of SBA has the activity to inhibit the replication of the viral particles of HIV within the cells to an extent as same as AZT, and from this it is expected that SBA is useful similarly to AZT for the therapeutic treatments of AIDS. (d) Tests for evaluating an inhibitory activity of SBA to the formation of giant cells from HIV-infected Molt-4 cells In a similar manner to that in the above Test (c), Molt-4 cells (a CD4-positive human T-cell strain) were infected with AIDS virus, HIVBRU. Thereafter, The HIV-infected Molt-4 cells were mixed with such Molt-4 cells which had no HIV-infection. And the mixture of these cells were cultivated at a high density of the mixed cells in the above-mentioned improved RPM1-1640 medium containing SBA at its different concentrations. Whereupon, there was examined the presence of cell-fused cell(s) (namely, the giant cells) which were formed by fusion of the HIV-infected cells with each other or by fusion of the HIV-infected cells with the HIV-non-infected cells. The formation and appearance of the giant cells was confirmed by microscopic observation. The size of such giant cells is clearly different from the size of the other usual cells. […] Namely, it is shown that SBA has an anti-HIV activity. […] In the initial stage of the transcription of HIV-1 gene, said NFkB, i.e. the transcription regulating factor of the host cells, plays an important role. […] NFkB is known to be a complex protein which is composed by the association of a molecule of protein having a molecular weight of about 50,000 (p50) with a molecule of protein having a molecular weight of about 65,000 (p65). […]

Measured: Amount of the HIV p24 antigen

Cc1cn([C@H]2C[C@H](N=[N+]=[N-])[C@@H](CO)O2)c(=O)[nH]c1=O [AZT, azidothymidine, reference compound]
0 pg/mL: 0th day | 1st day | 2nd day | 3rd day | 4th day | 5th day
